Test results reported in patent publication US4820694A, “Modifications of 3-O-demethylmycinose in macrocin and lactenocin” (priority 1986, dated 1989).
In brackets after ≈: the same amount, converted by molar mass. Where two headings read alike, the source gives them in different places.

How the values were obtained:
[1] = test system: Mycoplasma hyorhinis 29E; assay: broth-dilution microtiter MIC test; format: cell-based; conditions: Mycoplasma, 29E
Protocol: (§1) The MIC's in Table III were determined by standard agar-dilution assays. The MIC's in Table IV were obtained using conventional brothdilution microtiter tests.

[2] = test system: Pasteurella multocida 60A; assay: broth-dilution microtiter MIC test; format: cell-based; conditions: Pasteurella multocida, 60A; broth-dilution microtiter; Avian isolate; read-out: MIC
Protocol: as §1

[3] = test system: Mycoplasma gallisepticum 29C; assay: broth-dilution microtiter MIC test; format: cell-based; conditions: Mycoplasmoides gallisepticum, 29C
Protocol: as §1

[4] = test system: Streptococcus sp. 19F; assay: broth-dilution microtiter MIC test; format: cell-based; conditions: Streptococcus, SP.19F
Protocol: as §1

[5] = test system: Pasteurella multocida 22A; assay: broth-dilution microtiter MIC test; format: cell-based; conditions: Pasteurella multocida, 22A; broth-dilution microtiter; read-out: MIC
Protocol: as §1

[6] = test system: Pasteurella hemolytica 23C; assay: broth-dilution microtiter MIC test; format: cell-based; conditions: Pasteurella, 23C; broth-dilution microtiter; read-out: MIC
Protocol: as §1

[7] = test system: Staphylococcus aureus 19C; assay: broth-dilution microtiter MIC test; format: cell-based; conditions: Staphylococcus aureus, 19C
Protocol: as §1

[8] = test system: Pasteurella multocida 68C; assay: broth-dilution microtiter MIC test; format: cell-based; conditions: Pasteurella multocida, 68C; broth-dilution microtiter; read-out: MIC
Protocol: as §1

[9] = test system: Bordetella bronchiseptica; assay: broth-dilution microtiter MIC test; format: cell-based; conditions: Bordetella bronchiseptica; broth-dilution microtiter; read-out: MIC
Protocol: as §1

[10] = test system: Pasteurella hemolytica 22C; assay: broth-dilution microtiter MIC test; format: cell-based; conditions: Pasteurella, 22C; broth-dilution microtiter; read-out: MIC
Protocol: as §1

[11] = test system: Pasteurella hemolytica 41D; assay: broth-dilution microtiter MIC test; format: cell-based; conditions: Pasteurella, 41D; broth-dilution microtiter; read-out: MIC
Protocol: as §1

[12] = test system: Mycoplasma gallisepticum 15E; assay: broth-dilution microtiter MIC test; format: cell-based; conditions: Mycoplasmoides gallisepticum, 15E
Protocol: as §1

[13] = test system: Pasteurella multocida 40G; assay: broth-dilution microtiter MIC test; format: cell-based; conditions: Pasteurella multocida, 40G; broth-dilution microtiter; read-out: MIC
Protocol: as §1

[14] = test system: Pasteurella multocida 17E; assay: broth-dilution microtiter MIC test; format: cell-based; conditions: Pasteurella multocida, 17E; broth-dilution microtiter; Bovine isolate; read-out: MIC
Protocol: as §1

[15] = test system: Mycoplasma synoviae 40A; assay: broth-dilution microtiter MIC test; format: cell-based; conditions: Mycoplasmopsis synoviae, 40A
Protocol: as §1

[16] = test system: Mycoplasma gallisepticum 36H; assay: broth-dilution microtiter MIC test; format: cell-based; conditions: Mycoplasmoides gallisepticum, 36H
Protocol: as §1

[17] = test system: Streptococcus pyogenes C203; assay: standard agar-dilution MIC assay; format: cell-based; conditions: Streptococcus pyogenes, C203
Protocol: as §1

[18] = test system: Staphylococcus epidermidis EPI1; assay: standard agar-dilution MIC assay; format: cell-based; conditions: Staphylococcus epidermidis, EPI1
Protocol: as §1

[19] = test system: Staphylococcus aureus X1.1; assay: standard agar-dilution MIC assay; format: cell-based; conditions: Staphylococcus aureus, X1.1
Protocol: as §1

[20] = test system: Haemophilus influenzae 76; assay: standard agar-dilution MIC assay; format: cell-based; conditions: Haemophilus influenzae, 76; agar-dilution; Ampicillin-resistant strain; read-out: MIC
Protocol: as §1

[21] = test system: Escherichia coli EC14; assay: standard agar-dilution MIC assay; format: cell-based; conditions: agar-dilution, read-out: MIC
Protocol: as §1

[22] = test system: Pseudomonas aeruginosa X239; assay: standard agar-dilution MIC assay; format: cell-based; conditions: Pseudomonas aeruginosa, X239; agar-dilution; read-out: MIC
Protocol: as §1

[23] = test system: Staphylococcus epidermidis EP12; assay: standard agar-dilution MIC assay; format: cell-based
Protocol: as §1

[24] = test system: Klebsiella pneumoniae X68; assay: standard agar-dilution MIC assay; format: cell-based; conditions: Klebsiella pneumoniae, X68; agar-dilution; read-out: MIC
Protocol: as §1

[25] = test system: Streptococcus Group D 9960; assay: standard agar-dilution MIC assay; format: cell-based; conditions: GROUPD9960, read-out: MIC
Protocol: as §1

[26] = test system: Staphylococcus aureus X400; assay: standard agar-dilution MIC assay; format: cell-based; conditions: Staphylococcus aureus, X400
Protocol: as §1

[27] = test system: Haemophilus influenzae C.L.; assay: standard agar-dilution MIC assay; format: cell-based; conditions: Haemophilus influenzae; agar-dilution; Ampicillin-sensitive strain; read-out: MIC
Protocol: as §1

[28] = test system: Staphylococcus aureus V41; assay: standard agar-dilution MIC assay; format: cell-based; conditions: Staphylococcus aureus, V41
Protocol: as §1

[29] = test system: Streptococcus Group D X66; assay: standard agar-dilution MIC assay; format: cell-based; conditions: read-out: MIC
Protocol: as §1

[30] = test system: Streptococcus pyogenes C203; assay: protection of mice experimentally infected with S. pyogenes C203; format: in vivo; conditions: mice, mg/kg × 2, doses given 1 and 4 hours postinfection, read-out: ED50
Protocol: The formula 1 compounds have shown in vivo antimicrobial activity against experimentally-induced infections in laboratory animals. When two doses of test compound were administered to mice experimentally infected with S. pyrogenes C203, the activity observed was measured as an ED50 value [effective dose in mg/kg to protect 50% of the test animals: see Warren Wick, et al., J. Bacteriol. 81, 233-235 (1961)].
^a mg/kg × 2; doses given 1 and 4 hours postinfection

[31] = test system: Streptococcus pneumoniae Park I; assay: microbe, parasite or virus in culture; format: cell-based; conditions: Streptococcus pneumoniae
Protocol: as §1

[32] = test system: Staphylococcus aureus S13E; assay: microbe, parasite or virus in culture; format: cell-based; conditions: Staphylococcus aureus, S13E
Protocol: as §1

CCC1OC(=O)CC(O)C(C)C(OC2OC(C)C(OC3CC(C)(O)C(O)C(C)O3)C(N(C)C)C2OC(C)=O)C(CC=O)CC(C)C(=O)C=CC(C)=CC1COC1OC(C)C(OC(=O)CC(C)C)C(OC(=O)CC(C)C)C1OC (stereo not shown) [Compound 7, 2'-O-ACETYL-3'",4'"-di-O-isovaleryl-macrocin]
MIC [1]: 6.25 µg/mL (≈ 5.62 µM) | MIC [2]: > 50 µg/mL | MIC [3]: 3.12 µg/mL (≈ 2.8 µM) | MIC [4]: 3.12 µg/mL (≈ 2.8 µM) | MIC [5]: > 50 µg/mL | MIC [6]: > 50 µg/mL | MIC [7]: 12.5 µg/mL (≈ 11.2 µM) | MIC [8]: > 50 µg/mL | MIC [9]: > 50 µg/mL | MIC [10]: > 50 µg/mL | MIC [11]: > 50 µg/mL | MIC [12]: 12.5 µg/mL (≈ 11.2 µM) | MIC [13]: > 50 µg/mL | MIC [14]: > 50 µg/mL | MIC [15]: 3.12 µg/mL (≈ 2.8 µM) | MIC [16]: 50 µg/mL (≈ 44.9 µM) | MIC [17]: 4 µg/mL (≈ 3.6 µM) | MIC [18]: 8 µg/mL (≈ 7.19 µM) | MIC [19]: 8 µg/mL (≈ 7.19 µM) | MIC [20]: > 128 µg/mL | MIC [21]: > 128 µg/mL | MIC [22]: > 128 µg/mL | MIC [23]: 8 µg/mL (≈ 7.19 µM) | MIC [24]: > 128 µg/mL | MIC [25]: 8 µg/mL (≈ 7.19 µM) | MIC [26]: 16 µg/mL (≈ 14.4 µM) | MIC [27]: > 128 µg/mL | MIC [28]: 8 µg/mL (≈ 7.19 µM) | MIC [29]: 16 µg/mL (≈ 14.4 µM) | ED50 ([30]; C203, Oral): 71.4 mg/kg | ED50 ([30]; C203, sc, Subcutaneous): > 10 mg/kg | MIC [31]: 2 µg/mL (≈ 1.8 µM) | MIC [32]: 8 µg/mL (≈ 7.19 µM)

CCC1OC(=O)CC(O)C(C)C(OC2OC(C)C(OC3CC(C)(O)C(O)C(C)O3)C(N(C)C)C2OC(C)=O)C(CC=O)CC(C)C(=O)C=CC(C)=CC1COC1OC(C)C(OC(=O)COc2ccccc2)C(OC(=O)COc2ccccc2)C1OC (stereo not shown) [Compound 15, 2'-O-Acetyl-3'",4'"-di-O-phenoxyacetyl-macrocin]
MIC [1]: 6.25 µg/mL (≈ 5.16 µM) | MIC [2]: > 50 µg/mL | MIC [3]: 6.25 µg/mL (≈ 5.16 µM) | MIC [4]: 3.12 µg/mL (≈ 2.57 µM) | MIC [5]: > 50 µg/mL | MIC [6]: > 50 µg/mL | MIC [7]: 25 µg/mL (≈ 20.6 µM) | MIC [8]: > 50 µg/mL | MIC [9]: > 50 µg/mL | MIC [10]: > 50 µg/mL | MIC [11]: > 50 µg/mL | MIC [12]: 50 µg/mL (≈ 41.2 µM) | MIC [13]: > 50 µg/mL | MIC [14]: > 50 µg/mL | MIC [15]: 3.12 µg/mL (≈ 2.57 µM) | MIC [16]: 50 µg/mL (≈ 41.2 µM) | MIC [17]: 4 µg/mL (≈ 3.3 µM) | MIC [18]: 32 µg/mL (≈ 26.4 µM) | MIC [19]: 4 µg/mL (≈ 3.3 µM) | MIC [20]: > 128 µg/mL | MIC [21]: > 128 µg/mL | MIC [22]: > 128 µg/mL | MIC [23]: 32 µg/mL (≈ 26.4 µM) | MIC [24]: > 128 µg/mL | MIC [25]: 32 µg/mL (≈ 26.4 µM) | MIC [26]: 64 µg/mL (≈ 52.8 µM) | MIC [27]: > 128 µg/mL | MIC [28]: 8 µg/mL (≈ 6.6 µM) | MIC [29]: 32 µg/mL (≈ 26.4 µM) | ED50 ([30]; C203, Oral): 87.1 mg/kg | ED50 ([30]; C203, sc, Subcutaneous): > 10 mg/kg | MIC [31]: 0.5 µg/mL (≈ 0.412 µM) | MIC [32]: 32 µg/mL (≈ 26.4 µM)

CCC1OC(=O)CC(O)C(C)C(OC2OC(C)C(OC3CC(C)(O)C(O)C(C)O3)C(N(C)C)C2OC(C)=O)C(CC=O)CC(C)C(=O)C=CC(C)=CC1COC1OC(C)C(OC(C)=O)C(OC(=O)COc2ccccc2)C1OC (stereo not shown) [Compound 19, 2',4'"-Di-O-acetyl-3'"-O-phenoxyacetyl-macrocin]
MIC [1]: 3.12 µg/mL (≈ 2.78 µM) | MIC [2]: > 50 µg/mL | MIC [3]: 0.78 µg/mL (≈ 0.696 µM) | MIC [4]: 1.56 µg/mL (≈ 1.39 µM) | MIC [5]: > 50 µg/mL | MIC [6]: > 50 µg/mL | MIC [7]: 6.25 µg/mL (≈ 5.58 µM) | MIC [8]: > 50 µg/mL | MIC [9]: > 50 µg/mL | MIC [10]: > 50 µg/mL | MIC [11]: > 50 µg/mL | MIC [12]: 25 µg/mL (≈ 22.3 µM) | MIC [13]: > 50 µg/mL | MIC [14]: > 50 µg/mL | MIC [15]: 0.78 µg/mL (≈ 0.696 µM) | MIC [16]: 50 µg/mL (≈ 44.6 µM) | MIC [17]: 0.5 µg/mL (≈ 0.446 µM) | MIC [18]: 1 µg/mL (≈ 0.893 µM) | MIC [19]: 1 µg/mL (≈ 0.893 µM) | MIC [20]: > 128 µg/mL | MIC [21]: > 128 µg/mL | MIC [22]: > 128 µg/mL | MIC [23]: 1 µg/mL (≈ 0.893 µM) | MIC [24]: > 128 µg/mL | MIC [25]: 2 µg/mL (≈ 1.79 µM) | MIC [26]: 2 µg/mL (≈ 1.79 µM) | MIC [27]: > 128 µg/mL | MIC [28]: 1 µg/mL (≈ 0.893 µM) | MIC [29]: 2 µg/mL (≈ 1.79 µM) | MIC [31]: 0.25 µg/mL (≈ 0.223 µM) | MIC [32]: 1 µg/mL (≈ 0.893 µM)
